Assay [1] concerns lesional skin of patients with moderate atopic dermatitis. Nature of the assay: Gene expression by microarray (Affymetrix U133A Plus 2) in lesional skin biopsies, Phase II atopic dermatitis study. The assay is classed as in vivo, human. The following applies: microarray fold change. An excerpt: (§1) 31 patients with moderate atopic dermatitis (Investigator Global Assessment [IGA] of 3) were included in this double-blind, randomized, intraindividual vehicle-controlled, Phase 2 study to evaluate the efficacy and safety of topically applied niclosamide. Patients had at least 2 areas of at least 3×3-cm of atopic dermatitis with a Total Sign Score (TSS) of […] discontinued the study before Day 22.
(§2) Patients received topical applications of the niclosamide 2% composition and vehicle once daily for 3 weeks, followed by a 1-week follow up period. Topical niclosamide 2% and vehicle was applied on two separate target lesions of atopic dermatitis (lesions of at least 3×3-cm that are at least 2 cm apart, excluding the face, scalp, genitals, hands, and feet). The application areas (5×5-cm) were randomized (1:1) to once daily application of niclosamide 2% or vehicle at 5 mg/cm^2/day without occlusion 6 days per week. Patients came to the study site for all study product application for a total of 3 weeks.
(§3) Three skin biopsies were collected in all patients (one from lesional skin at baseline, pre-dosing at Day 1, and two from lesional skin at Day 22 (one where topical niclosamide 2% had been applied and one where the vehicle had been applied). The lesional skin biopsies were analysed for skin thickness and inflammation biomarkers.
(§4) Skin barrier and inflammation biomarker levels were determined from lesional skin biopsies from application areas.
(§5) The skin biopsy samples were analysed by immunohistochemistry (IHC), and by gene expression studies by RT-PCR using TaqMan Low Density Array (TLDA), and by microarray using Affymetrix U133A Plus 2. The immunohistochemistry (IHC) was used to analyse cell biomarkers. The methodologies as disclosed by Guttman-Yassky et al, “Major differences in inflammatory dendritic cells and their products distinguish atopic dermatitis from psoriasis”, The Journal of Allergy and Clinical Immunology, vol. 119, issue 5, pages 1210-1217, 2007, were followed except for that U133A Plus 2-set Gene Chip probe arrays was used instead of U95A-set Gene Chip probe arrays.
Experimental design: The hybridization strategy was in concordance with experimental design principles, by for example keeping all samples from the same patient in the same date, and always include samples from every treatment arm/group.
Quality Control and Pre-processing: Quality control of microarray chips were carried out using standard QC metrics and R package microarray Quality Control. Expression measures were obtained using GCRMA algorithm (Wu & Irizarry, 2004). Several visual and modelling techniques were used to elucidate if batch effect existed. Principal Component analysis plots were used to detect if any evident batch effect existed. If such batch effects were found, they were adjusted using Combat, an empirical Bayes method for adjusting data for batch effects that is robust to outliers in small sample sizes (Johnson, Li, & Rabinovic, 2007). The implementation of Combat by package sva was used.
Probe-sets with at least 5% samples with expression larger than 3 (in log 2-scale) were kept for further analysis. Expression values were modelled using mixed-effect models with fixed factors Visit and Treatment Area and a random effect for each patient. Fold changes for the comparisons of interest were estimated and hypothesis testing was conducted on such comparisons using contrasts under the general framework for linear models in limma package. The inter-replicate correlation was computed by Duplicate Correlation function and the linear model was estimated by ImFit. P-values from the moderated (paired) t-test were adjusted for multiple hypotheses using the Benjamini-Hochberg procedure, which controls for FDR.

Assay [2] relates to lamina propria T cells (expressing CD3). The following applies: WO 2017/040864; cited from earlier work.
Assay [3] has as its system lesional skin of patients with moderate atopic dermatitis. Description: Gene expression by qRT-PCR (TLDA) in lesional skin biopsies, Phase II atopic dermatitis study. Type of assay: in vivo, human. The following applies: qRT-PCR fold change, lesional skin biopsy, Day 22, niclosamide 2% once daily.
Excerpt: as §1, §2, §3, §4, §5
Expression values (threshold cycle [Ct]) were normalized to Rplp0 by negatively transforming the Ct values to −dCt (IL17A was normalized to hARP, as analysed by qPCR). The undetected −dCt values were estimated for each gene as the 20% of the minimum across all samples. qRT-PCR expression data were modelled using a mixed effect model with Visit and Treatment Area as a fixed effect and a random intercept for each patient. This formulation intrinsically models the within patient correlation structure as in the case of a paired t-test. This approach introduces less bias than restricting the analysis for those patients who completed the study. Contrasts were used to estimate the fold changes with treatment within each treatment group and conduct hypothesis testing.
(Real-time PCR tracks product formation cycle by cycle.)

For assay [4] the test system is unchanged. Nature of the assay: Skin thickness in lesional skin biopsies at Day 22. Type of assay: in vivo, human. The following applies: lesional skin biopsy, Day 22, 2% niclosamide. The protocol:
as §2, with “weeks. Three skin biopsies were collected in all patients (one from lesional skin at baseline, pre-dosing at Day 1, and two from lesional skin at Day 22 (one where topical niclosamide 2% had been applied and one where the vehicle had been applied). The lesional skin biopsies were analysed for skin thickness and inflammation biomarkers.” for “weeks.”

Assay [5] deals with dendritic cell. The following applies: in-vitro, Wu et al.; cited from earlier work.
The subject of assay [6] is lesional skin of patients with moderate atopic dermatitis. Nature of the assay: Immunohistochemistry (IHC) of cell markers in lesional skin biopsies, Phase II atopic dermatitis study. Type of assay: in vivo, human. The following applies: lesional skin biopsy, Day 22, 2% niclosamide.
Excerpt: as §1, §2, §3, §5

The subject of assay [7] is lesional AD skin. The note with it: Brunner et al; cited from earlier work.
Setting [8] is: lesional skin biopsy, Day 22, niclosamide 2% once daily.
[9] abbreviates: niclosamide relative to vehicle, Day 22, 2% niclosamide, p<0.05.

Consider `O=C(Nc1ccc([N+](=O)[O-])cc1Cl)c1cc(Cl)ccc1O` [Niclosamide, niclosamide], for which, in assay [1] (setting [8]), the “ACOX2 Niclosamide vs Predose” value was 1.40, the “ACOX2 Vehicle vs. Niclosamide” value is given as −1.40, the “CCL13 Niclosamide vs Predose” value is −1.40 and the “CCL18 Niclosamide vs Predose” value is on record as −1.70. Also, in assay [1] (setting [8]), the “CCL20 Vehicle vs. Niclosamide” value stood at 2.00, the “CCR1 Niclosamide vs Predose” value is listed as −1.90, the “CCR5 Niclosamide vs Predose” value is recorded as −1.40 and the “CD86 Niclosamide vs Predose” value was −1.60. Also, in assay [1] (setting [8]), the “CXCL1 Vehicle vs. Niclosamide” value was 2.10, the “FA2H Niclosamide vs Predose” value is 1.50, the “IFNGR2 Vehicle vs. Niclosamide” value was 1.10 and the “IL4R Niclosamide vs Predose” value is −1.80. For the same compound, in assay [1] (setting [8]), the “KRT79 Vehicle vs. Niclosamide” value is recorded as −2.00, the “S100A12 Vehicle vs. Niclosamide” value amounted to 2.30 and the “SPTLC3 Vehicle vs. Niclosamide” value is on record as −1.30. Further, in assay [1] (setting [9]), the “CXCL1 downregulated compared to vehicle” value is listed as −2.10 and the “S100A12 downregulated compared to vehicle” value is −2.30. In addition, the “effect on lamina propria T cells (expressing CD3) isolated from IBD patients” value in assay [2] is listed as “kills”. In addition, in assay [3], the “CXCL1 Niclosamide vs. Predose” value is reported as −2.80, the “CXCL10 Niclosamide vs. Vehicle” value is listed as −1.10, the “FLG Niclosamide vs. Predose” value is given as 1.50 and the “FLG Niclosamide vs. Vehicle” value was found to be 1.30. In assay [3], the “IL2 Niclosamide vs. Predose” value is given as −1.20, the “IL17A Niclosamide vs. Vehicle” value was −1.40, the “KRT16 Niclosamide vs. Vehicle” value is given as −1.60 and the “MMP12 Niclosamide vs. Vehicle” value is −1.90. Moreover, the “S100A7 Niclosamide vs. Vehicle” value in assay [3] was −2.20. In assay [3] (listed as niclosamide), the “FLG Niclosamide vs. Predose” value was “increased significantly” and the “LOR Niclosamide vs. Predose” value is recorded as “increased significantly”. Also, in assay [4], the “skin thickness compared to baseline and compared to vehicle” value was “No differences”. Further, in assay [5], the “lipopolysaccharide (LPS)-induced dendritic cell maturation and cytokine costimulatory molecule and MHC molecule expression” value was “inhibitory action”. Besides, in assay [6], the “Langerhans cells: langerin/CD207, compared to baseline” value is “Significant reductions”; the “dendritic cells: CD11c, compared to baseline” value is reported as “Significant reductions”; the “dendritic cells: FceR1 in epidermis, compared to baseline” value is on record as “Significant reductions”; the “total amount of T cells (CD3) in dermis and epidermis, compared to baseline” value is given as “No significant change”.
With “dupilumab: inhibits interleukin-4 and interleukin-13 signalling by binding to interleukin-4 receptor a; FDA approved for atopic dermatitis”, in assay [7], the “expression of Th2-associated molecules, such as CCL17, CCL18, and CCL26” value is given as “reduction”.
